Source: patent US20200190087A1 (priority 2016, published 2020)
Where two headings read alike, the source gives them in different places.

Key:
human μ-opioid receptor = target: T1, human μ-opioid receptor (Homo sapiens, UniProt P35372); assay: Human μ-opioid receptor radioligand assay ([3H]-DAMGO); format: binding
T1 construct: expressed in transfected cells; host or cells: CHO-K1
Experimental: Human μ-Opioid Receptor Radioligand Assay
To investigate binding properties of test compounds to human μ-opioid receptor, transfected CHO-K1 cell membranes and [^3H]-DAMGO (Perkin Elmer, ES-542-C), as the radioligand, were used. The assay was carried out with 20 μg of membrane suspension, 1 nM of [^3H]-DAMGO in either absence or presence of either buffer or 10 μM Naloxone for total and non-specific binding, respectively. Binding buffer contained Tris-HCl 50 mM, MgCl2 5 mM at pH 7.4. Plates were incubated at 27° C. for 60 minutes. After the incubation period, the reaction mix was then transferred to MultiScreen HTS, FC plates (Millipore), filtered and plates were washed 3 times with ice-cold 10 mM Tris-HCL (pH 7.4). Filters were dried and counted at approximately 40% efficiency in a MicroBeta scintillation counter (Perkin-Elmer) using EcoScint liquid scintillation cocktail. Preferably, transfected CHO-K1 cell membranes (20 μg) were incubated with 1 nM of [^3H]-DAMGO in assay buffer containing Tris-HCl 50 mM, MgCl2 5 mM at pH 7.4. NBS (non-specific binding) was measured by adding 10 μM Naloxone. The binding of the test compound was measured at five different concentrations. Plates were incubated at 27° C. for 60 minutes. After the incubation period, the reaction mix was then transferred to MultiScreen HTS, FC plates (Millipore), filtered and plates were washed 3 times with ice-cold 10 mM Tris-HCL (pH 7.4). Filters were dried and counted at approximately 40% efficiency in a MicroBeta scintillation counter (Perkin-Elmer) using EcoScint liquid scintillation cocktail.

[1] = target: Human α2δ-1 subunit of Cav2.2 calcium channel (Homo sapiens, UniProt P54289); assay: Human α2δ-1 subunit of Cav2.2 calcium channel assay ([3H]-Gabapentin binding); details: human α2δ-1 enriched membranes, 15 nM [3H]-Gabapentin, binding expressed as Ki; read-out: α2δ1 binding activity
Sequence of Human α2δ-1 subunit of Cav2.2 calcium channel (P54289 25-1103): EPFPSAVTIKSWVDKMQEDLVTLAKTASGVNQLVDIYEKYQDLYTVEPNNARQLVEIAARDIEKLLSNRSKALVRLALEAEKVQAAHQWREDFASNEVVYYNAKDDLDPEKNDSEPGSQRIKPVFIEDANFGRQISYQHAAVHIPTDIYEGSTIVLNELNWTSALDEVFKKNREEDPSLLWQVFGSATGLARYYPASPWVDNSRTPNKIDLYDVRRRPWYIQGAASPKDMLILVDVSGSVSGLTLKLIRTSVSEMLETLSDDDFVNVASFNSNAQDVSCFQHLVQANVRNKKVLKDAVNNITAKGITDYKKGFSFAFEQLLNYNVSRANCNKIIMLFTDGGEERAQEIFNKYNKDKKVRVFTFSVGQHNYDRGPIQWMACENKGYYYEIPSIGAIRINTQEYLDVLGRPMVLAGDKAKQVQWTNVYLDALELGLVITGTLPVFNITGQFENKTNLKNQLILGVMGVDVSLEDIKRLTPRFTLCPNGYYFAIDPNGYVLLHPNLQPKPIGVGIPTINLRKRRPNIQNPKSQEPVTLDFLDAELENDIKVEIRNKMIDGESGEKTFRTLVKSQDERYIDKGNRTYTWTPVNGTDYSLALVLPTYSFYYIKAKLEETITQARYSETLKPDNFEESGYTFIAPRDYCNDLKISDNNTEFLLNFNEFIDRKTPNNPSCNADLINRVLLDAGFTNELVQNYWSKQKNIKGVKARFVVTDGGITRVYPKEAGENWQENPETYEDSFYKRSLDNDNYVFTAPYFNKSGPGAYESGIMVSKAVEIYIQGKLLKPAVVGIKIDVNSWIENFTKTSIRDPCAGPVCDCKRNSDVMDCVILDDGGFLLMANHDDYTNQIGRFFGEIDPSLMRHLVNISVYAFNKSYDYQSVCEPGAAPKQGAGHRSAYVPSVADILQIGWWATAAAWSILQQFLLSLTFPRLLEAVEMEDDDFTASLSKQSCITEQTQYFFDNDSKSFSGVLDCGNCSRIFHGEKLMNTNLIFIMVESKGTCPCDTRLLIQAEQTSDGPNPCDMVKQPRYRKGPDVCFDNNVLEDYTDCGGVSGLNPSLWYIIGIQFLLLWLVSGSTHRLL
Experimental: Human α2δ-1 Subunit of Cav2.2 Calcium Channel Assay
Human α2δ-1 enriched membranes (2.5 μg) were incubated with 15 nM of radiolabeled [3H]-Gabapentin in assay buffer containing Hepes-KOH 10 mM, pH 7.4. NSB (non specific binding) was measured by adding 10 μM pregabalin. The binding of the test compound was measured at five different concentrations. After 60 min incubation at 27° C., binding reaction was terminated by filtering through Multiscreen GF/C (Millipore) presoaked in 0.5% polyethyleneimine in Vacuum Manifold Station, followed by 3 washes with ice-cold filtration buffer containing 50 mM Tris-HCl, pH 7.4. Filter plates were dried at 60° C. for 1 hour and 30 μl of scintillation cocktail were added to each well before radioactivity reading. Readings were performed in a Trilux 1450 Microbeta radioactive counter (Perkin Elmer).

[2] = transfected CHO-K1 cell membranes, 1 nM [3H]-DAMGO, binding expressed as Ki, read-out: Mu binding activity

T1 sequence (P35372 whole entry): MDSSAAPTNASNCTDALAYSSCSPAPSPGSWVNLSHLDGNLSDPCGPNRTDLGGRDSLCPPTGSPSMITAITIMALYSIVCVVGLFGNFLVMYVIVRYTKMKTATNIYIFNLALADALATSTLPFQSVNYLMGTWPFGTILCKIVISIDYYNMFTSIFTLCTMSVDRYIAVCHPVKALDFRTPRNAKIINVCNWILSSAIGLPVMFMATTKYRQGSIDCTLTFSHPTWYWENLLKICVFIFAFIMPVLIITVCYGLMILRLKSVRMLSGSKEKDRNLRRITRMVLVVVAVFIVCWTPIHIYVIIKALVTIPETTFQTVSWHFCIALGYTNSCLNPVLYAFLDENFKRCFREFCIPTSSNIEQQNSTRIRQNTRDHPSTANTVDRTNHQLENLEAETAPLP

Row | Compound | Ki [1] | Ki (human μ-opioid receptor; [2]) | Ki (human μ-opioid receptor)
1 | CCOc1ccc(-n2nc3c(C4CCN(Cc5ccccn5)CC4)nnc(C)c3c2C)c(F)c1 [Ex 28, 2-(4-Ethoxy-2-fluorophenyl)-3,4-dimethyl-7-(1-(pyridin-2-ylmethyl)piperidin-4-yl)-2H-pyrazolo[3,4-d]pyridazine] | 0.5 to 3 µM | – | < 0.5 µM
2 | CCOc1ccc(-n2nc3c(C4CCN(Cc5cccnc5)CC4)nnc(C)c3c2C)c(F)c1 [Ex 29, 2-(4-Ethoxy-2-fluorophenyl)-3,4-dimethyl-7-(1-(pyridin-3-ylmethyl)piperidin-4-yl)-2H-pyrazolo[3,4-d]pyridazine] | 0.5 to 3 µM | > 0.5 µM | –
3 | CCOc1ccc(-n2nc3c(C4CCN(Cc5ccncc5)CC4)nnc(C)c3c2C)c(F)c1 [Ex 30, 2-(4-Ethoxy-2-fluorophenyl)-3,4-dimethyl-7-(1-(pyridin-4-ylmethyl)piperidin-4-yl)-2H-pyrazolo[3,4-d]pyridazine] | 0.5 to 3 µM | > 0.5 µM | –
4 | CCOc1ccc(-n2nc3c(C4CCN(Cc5ncccc5O)CC4)nnc(C)c3c2C)c(F)c1 [Ex 31, 2-((4-(2-(4-Ethoxy-2-fluorophenyl)-3,4-dimethyl-2H-pyrazolo[3,4-d]pyridazin-7-yl)piperidin-1-yl)methyl)pyridin-3-ol] | 0.5 to 3 µM | > 0.5 µM | –
5 | CCOc1ccc(-n2nc3c(C4CCN(CC5CC5)CC4)nnc(C)c3c2C)c(F)c1 [Ex 32, 7-(1-(Cyclopropyl-methyl)piperidin-4-yl)-2-(4-ethoxy-2-fluorophenyl)-3,4-dimethyl-2H-pyrazolo[3,4-d]pyridazine] | 0.5 to 3 µM | > 0.5 µM | –

Further lines, with some results ahead:

Row | Ki [1] | Ki (human μ-opioid receptor; [2]) | Compound | Ki (human μ-opioid receptor)
6 | 0.5 to 3 µM | > 0.5 µM | CCOc1ccc(-n2nc3c(C4CCN(CC5CCOCC5)CC4)nnc(C)c3c2C)c(F)c1 [Ex 33, 2-(4-Ethoxy-2-fluorophenyl)-3,4-dimethyl-7-(1-((tetrahydro-2H-pyran-4-yl)methyl)piperidin-4-yl)-2H-pyrazolo[3,4-d]pyridazine] | –
7 | 3 to 5 µM | > 0.5 µM | CCOc1ccc(-n2nc3c(C4CCN(CCC5CCOCC5)CC4)nnc(C)c3c2C)c(F)c1 [Ex 34, 2-(4-Ethoxy-2-fluorophenyl)-3,4-dimethyl-7-(1-(2-(tetrahydro-2H-pyran-4-yl)ethyl)piperidin-4-yl)-2H-pyrazolo[3,4-d]pyridazine] | –
8 | 0.5 to 3 µM | > 0.5 µM | CCOc1ccc(-n2nc3c(C4CCN(Cc5cn(Cc6ccccn6)nn5)CC4)nnc(C)c3c2C)c(F)c1 [Ex 35, 2-(4-Ethoxy-2-fluorophenyl)-3,4-dimethyl-7-(1-((1-(pyridin-2-ylmethyl)-1H-1,2,3-triazol-4-yl)methyl)piperidin-4-yl)-2H-pyrazolo[3,4-d]pyridazine] | –
9 | 0.5 to 3 µM | > 0.5 µM | CCOc1ccc(-n2nc3c(C4CCCN(Cc5ccccc5)C4)nnc(C)c3c2C)c(F)c1 (centres unmarked) [Ex 36, 7-(1-Benzylpiperidin-3-yl)-2-(4-ethoxy-2-fluorophenyl)-3,4-dimethyl-2H-pyrazolo[3,4-d]pyridazine] | –
10 | 0.5 to 3 µM | > 0.5 µM | CCOc1ccc(-n2nc3c(C4CN(CCc5ccccc5)C4)nnc(C)c3c2C)c(F)c1 [Ex 37, 2-(4-Ethoxy-2-fluorophenyl)-3,4-dimethyl-7-(1-phenethylazetidin-3-yl)-2H-pyrazolo[3,4-d]pyridazine] | –
11 | 0.5 to 3 µM | > 0.5 µM | CCOc1ccc(-n2nc3c(CCCNCc4ccccc4)nnc(C)c3c2C)c(F)c1 [Ex 38, N-Benzyl-3-(2-(4-ethoxy-2-fluorophenyl)-3,4-dimethyl-2H-pyrazolo[3,4-d]pyridazin-7-yl)propan-1-amine] | –
12 | 0.5 to 3 µM | > 0.5 µM | CCOc1ccc(-n2nc3c(CCCN(C)CCc4ccccc4)nnc(C)c3c2C)c(F)c1 [Ex 39, 3-(2-(4-Ethoxy-2-fluorophenyl)-3,4-dimethyl-2H-pyrazolo[3,4-d]pyridazin-7-yl)-N-methyl-N-phenethylpropan-1-amine] | –
13 | ≥ 5 µM | > 0.5 µM | CCOc1ccc(-n2nc3c(CCNCc4ccccc4)nnc(C)c3c2C)c(F)c1 [Ex 40, N-Benzyl-2-(2-(4-ethoxy-2-fluorophenyl)-3,4-dimethyl-2H-pyrazolo[3,4-d]pyridazin-7-yl)ethan-1-amine] | –
